For 29 compounds, IC50 and Emax results are on record in patent US20180338980A1, “AROMATIC SULFONAMIDE DERIVATIVES” (BAYER PHARMA AKTIENGESELLSCHAFT, priority 2015, published 2018).

Values joined by “and” are separate entries in the source; they are usually repeats but may differ in a detail not shown here. Equal values may be shown once. Bounds are passed on as bounds.

In this assay the target is T1, P2X4 (Homo sapiens, UniProt Q99571).
T1 sequence (Q99571 1-388): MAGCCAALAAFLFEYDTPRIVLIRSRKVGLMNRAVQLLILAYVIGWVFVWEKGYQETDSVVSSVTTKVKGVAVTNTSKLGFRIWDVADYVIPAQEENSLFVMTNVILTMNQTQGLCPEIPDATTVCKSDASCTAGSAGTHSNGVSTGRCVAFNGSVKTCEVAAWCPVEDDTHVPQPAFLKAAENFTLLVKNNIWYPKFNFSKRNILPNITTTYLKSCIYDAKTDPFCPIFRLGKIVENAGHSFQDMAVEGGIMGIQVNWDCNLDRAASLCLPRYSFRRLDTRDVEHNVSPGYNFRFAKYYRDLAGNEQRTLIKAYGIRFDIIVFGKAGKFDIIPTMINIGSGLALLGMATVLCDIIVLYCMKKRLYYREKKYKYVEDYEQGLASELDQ
In words: Assay B: human P2X4 receptor cell line, mitochondrial photina luminescence (agonist Bz-ATP at EC50). The conditions noted are these: HEK human P2X4 cell line, photina luminescence, agonist Bz-ATP at EC50, average; for Emax: read-out: human P2X4 Assay B avg Efficacy. Details: host or cells: HEK 293 (recombinant, constitutively expressing; with mitochondrial photina in Assay B). The assay is classed as cell-based. As to the method: The identification of agonists and antagonists of the P2X4 receptor from humans and […] also the quantification of the activity of the compounds of the invention was performed by use of recombinant cell lines. […] The test cell lines constitutively express the mouse or human P2X4 receptors. Stimulation of the receptors with an agonist leads to a conformational change of P2X4 and influx of extracellular calcium ions through the ion channel. The cytoplasmatic calcium transient is detected via the calcium sensitive dye Fluo8 for the mouse P2×4 cell line or in case of the human P2×4 cell line a stably expressed calcium-sensitive photoprotein, mitochondrial photina, which, after reconstitution with the cofactor coelenterazine, emits light in dependence of calcium binding [Bovolenta S, Foti M, Lohmer S, Corazza S., J Biomol Screen. […] The strength of Fluo8 fluorescence signal or photina luminescence signal corresponds to the level of receptor activation. An inhibitor would decrease the signal depending on its potency and concentration.
The resulting light signal is measured immediately in the luminometer.

For the compound `CN1CCC(Oc2ccc(NC(=O)Cc3ccccc3Cl)cc2S(N)(=O)=O)C1` (stereo not drawn) [Example 222, 2-(2-Chlorophenyl)-N-{4-[(1-methylpyrrolidin-3-yl)oxy]-3-sulfamoylphenyl}acetamide], the IC50 is 8540 nM and 8060 nM and > 16000 nM; the Emax amounted to 70%.
In the case of `NS(=O)(=O)c1cc(NC(=O)Cc2ncccc2Cl)ccc1Oc1cccc(Cl)c1` [Example 112, N-[4-(3-Chlorophenoxy)-3-sulfamoylphenyl]-2-(3-chloropyridin-2-yl)acetamide], the IC50 amounted to 289 nM and the Emax came out at 60%.
In the same order, the values of `NS(=O)(=O)c1cc(NC(=O)Cc2ccc(Cl)cc2)ccc1Oc1ccc(Cl)cc1` [Example 228, N-[4-(4-Chlorophenoxy)-3-sulfamoylphenyl]-2-(4-chlorophenyl)acetamide] are 1590 nM and 58%.
For `N#Cc1ncc(Cl)cc1Oc1ccc(NC(=O)Cc2ccccc2Cl)cc1S(N)(=O)=O` [Example 048, N-{4-[(5-Chloro-2-cyanopyridin-3-yl)oxy]-3-sulfamoylphenyl}-2-(2-chlorophenyl)acetamide], the IC50 is 11600 nM and the Emax was found to be 73%.
On to `NS(=O)(=O)c1cc(NC(=O)Cc2cccnc2Cl)ccc1Oc1cccc(Cl)c1` [Example 093, N-[4-(3-Chlorophenoxy)-3-sulfamoylphenyl]-2-(2-chloropyridin-3-yl)acetamide], for which the IC50 came out at 216 nM and the Emax was found to be 68%.
As to `Cc1ccc(Cl)c(CC(=O)Nc2ccc(Oc3cccc(Cl)c3)c(S(N)(=O)=O)c2)c1F` [Example 121, 2-(6-Chloro-2-fluoro-3-methylphenyl)-N-[4-(3-chlorophenoxy)-3-sulfamoylphenyl]acetamide], the IC50 came out at 218 nM and the Emax was 62%.
Turning to `Cc1cc(C)cc(Oc2ccc(NC(=O)Cc3ccccc3)cc2S(N)(=O)=O)c1` [Example 246, N-[4-(3,5-Dimethylphenoxy)-3-sulfamoylphenyl]-2-phenylacetamide], the IC50 was determined as 949 nM and the Emax came to 94%.
For `NS(=O)(=O)c1cc(NC(=O)Cc2ccccc2Cl)ccc1Oc1ncccc1Cl` [Example 038, 2-(2-chlorophenyl)-N-{4-[(3-chloropyridin-2-yl)oxy]-3-sulfamoylphenyl}acetamide], in that order: 777 nM and 74%.
`NS(=O)(=O)c1cc(NC(=O)Cc2ccccc2OCCO)ccc1Oc1cccc(Cl)c1` [Example 213, N-[4-(3-Chlorophenoxy)-3-sulfamoylphenyl]-2-[2-(2-hydroxyethoxy)phenyl]acetamide]: the IC50 worked out at 818 nM and the Emax amounted to 61%.
For `Cc1cc(CC(=O)Nc2ccc(Oc3cccc(Cl)c3)c(S(N)(=O)=O)c2)c(Cl)cc1Br` [Example 118, 2-(4-Bromo-2-chloro-5-methylphenyl)-N-[4-(3-chlorophenoxy)-3-sulfamoylphenyl]acetamide], in that order: 1890 nM and 61%.
Turning to `Cc1cccc(CC(=O)Nc2cc(F)c(Oc3cccc(Cl)c3)c(S(N)(=O)=O)c2)c1` [Example 172, N-[4-(3-Chlorophenoxy)-3-fluoro-5-sulfamoylphenyl]-2-(3-methylphenyl)acetamide], the IC50 was 3240 nM and the Emax was 63%.
For `NS(=O)(=O)c1cc(NC(=O)Cc2ccccc2Cl)ccc1OC1CC[S+]([O-])C1` (stereo not drawn) [Example 241, 2-(2-Chlorophenyl)-N-{4-[(1-oxidotetrahydrothiophen-3-yl)oxy]-3-sulfamoylphenyl}acetamide], in that order: over 16000 nM and 34%.
For `NS(=O)(=O)c1cc(NC(=O)Cc2ccccc2Cl)ccc1Oc1ccnc(Cl)c1` [Example 003, 2-(2-Chlorophenyl)-N-{4-[(2-chloropyridin-4-yl)oxy]-3-sulfamoylphenyl}acetamide], in that order: 6340 nM and 50%.
For `NS(=O)(=O)c1cc(NC(=O)Cc2ccccc2Cl)ccc1Oc1ccc(N2CCOCC2)cc1` [Example 044, 2-(2-Chlorophenyl)-N-{4-[4-(morpholin-4-yl)phenoxy]-3-sulfamoylphenyl}acetamide], in that order: 2630 nM and 69%.
Turning to `NS(=O)(=O)c1cc(NC(=O)C(F)(F)c2ccccc2Cl)ccc1Oc1cccc(Cl)c1` [Example 094, N-[4-(3-Chlorophenoxy)-3-sulfamoylphenyl]-2-(2-chlorophenyl)-2,2-difluoroacetamide], the IC50 came to 200 nM and the Emax is 74%.
For `COc1ccc(CC(=O)Nc2ccc(Oc3cccc(Cl)c3)c(S(N)(=O)=O)c2)cc1` [Example 190, N-[4-(3-Chlorophenoxy)-3-sulfamoylphenyl]-2-(4-methoxyphenyl)acetamide], in that order: 171 nM and 65%.
In the same order, the values of `Cc1ccc(C#N)cc1Oc1ccc(NC(=O)Cc2ccccc2Cl)cc1S(N)(=O)=O` [Example 045, 2-(2-Chlorophenyl)-N-[4-(5-cyano-2-methylphenoxy)-3-sulfamoylphenyl]acetamide] are 176 nM and 71%.
In the case of `NS(=O)(=O)c1cc(NC(=O)Cc2cccnc2)ccc1Oc1cccc(Cl)c1` [Example 181, N-[4-(3-Chlorophenoxy)-3-sulfamoylphenyl]-2-(pyridin-3-yl)acetamide], the IC50 was 2240 nM and the Emax was 63%.
For `CN1CCCC(Oc2ccc(NC(=O)Cc3ccccc3)cc2S(N)(=O)=O)C1` (stereo not drawn) [Example 219, N-{4-[(1-Methylpiperidin-3-yl)oxy]-3-sulfamoylphenyl}-2-phenylacetamide], in that order: over 50000 nM and 23%.
`NS(=O)(=O)c1cc(NC(=O)Cc2cnc(Cl)cc2Cl)ccc1Oc1cccc(Cl)c1` [Example 111, N-[4-(3-Chlorophenoxy)-3-sulfamoylphenyl]-2-(4,6-dichloropyridin-3-yl)acetamide]: the IC50 is 273 nM and the Emax amounted to 48%.
Regarding `NS(=O)(=O)c1cc(NC(=O)Cc2ccc3c(c2)OCCO3)ccc1Oc1ccc(Cl)cc1` [Example 276, N-[4-(4-Chlorophenoxy)-3-sulfamoylphenyl]-2-(2,3-dihydro-1,4-benzodioxin-6-yl)acetamide], the IC50 is over 50000 nM and the Emax stood at 35%.
For the compound `COc1ccc(C#N)cc1Oc1ccc(NC(=O)Cc2ccccc2Cl)cc1S(N)(=O)=O` [Example 034, 2-(2-Chlorophenyl)-N-[4-(5-cyano-2-methoxyphenoxy)-3-sulfamoylphenyl]acetamide], the IC50 came out at 172 nM and the Emax is 57%.
On to `NS(=O)(=O)c1cc(NC(=O)Cc2ccccc2F)ccc1Oc1ccc(Cl)cc1` [Example 230, N-[4-(4-Chlorophenoxy)-3-sulfamoylphenyl]-2-(2-fluorophenyl)acetamide], for which the Emax was 50%.
For `NS(=O)(=O)c1cc(NC(=O)Cc2ccc(F)cc2)ccc1Oc1ccc(Cl)cc1` [Example 223, N-[4-(4-Chlorophenoxy)-3-sulfamoylphenyl]-2-(4-fluorophenyl)acetamide], the IC50 came to 1850 nM and the Emax was found to be 82%.
With `Cc1cccc(CC(=O)Nc2ccc(Oc3cccc(Cl)c3)c(S(N)(=O)=O)c2)n1` [Example 189, N-[4-(3-Chlorophenoxy)-3-sulfamoylphenyl]-2-(6-methylpyridin-2-yl)acetamide], the IC50 amounted to 429 nM and the Emax is 54%.
In the same order, the values of `NS(=O)(=O)c1cc(NC(=O)Cc2ccncc2Cl)ccc1Oc1cccc(Cl)c1` [Example 119, N-[4-(3-Chlorophenoxy)-3-sulfamoylphenyl]-2-(3-chloropyridin-4-yl)acetamide] are 164 nM and 64%.
In the same order, the values of `COc1ccccc1Oc1ccc(NC(=O)Cc2ccc(C(F)(F)F)cc2)cc1S(N)(=O)=O` [Example 071, N-[4-(2-Methoxyphenoxy)-3-sulfamoylphenyl]-2-[4-(trifluoromethyl)phenyl]acetamide] are 2090 nM and 73%.
Regarding `N#Cc1ccc(Oc2ccc(NC(=O)Cc3ccccc3Cl)cc2S(N)(=O)=O)cc1C#N` [Example 025, 2-(2-Chlorophenyl)-N-[4-(3,4-dicyanophenoxy)-3-sulfamoylphenyl]acetamide], the IC50 is over 16000 nM and the Emax came to 50%.
`NS(=O)(=O)c1cc(NC(=O)Cc2c(Cl)cc(C(F)(F)F)cc2Cl)ccc1Oc1ccc(Cl)cc1` [Example 242, N-[4-(4-Chlorophenoxy)-3-sulfamoylphenyl]-2-[2,6-dichloro-4-(trifluoromethyl)phenyl]acetamide]: the IC50 is 2870 nM and > 16000 nM; the Emax was determined as 71%.

Usually IC50 stands for the concentration that gives 50% inhibition.
